Laboratory results as given in patent US10405547B2, “Substituted cyclic amides as herbicides” (FMC Corporation, priority 2015, dated 2019).

Columns and labels:
Assay type in all cases: in vivo
[1] = system: barnyardgrass (Echinochloa crus-galli); test: Test A preemergence, barnyardgrass; settings: 0 to 100 scale (0 no effect, 100 complete control)
Method in brief: (§1)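 Injury scores (0 no effect, 100 complete control) were assigned by visually comparing treated with untreated plants after about 10 days of greenhouse growth. Seeds for soil treatment were sown into a loam and sand blend, while plants for foliar treatment grew in pots of that same blend.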

kochia (Kochia scoparia) [2] = test: Test A preemergence, kochia; settings: 0 to 100 scale (0 no effect, 100 complete control)
Method in brief: as §1

[3] = system: ragweed (common ragweed, Ambrosia elatior); test: Test A preemergence, ragweed; settings: 0 to 100 scale (0 no effect, 100 complete control)
Method in brief: as §1

[4] = system: ryegrass, Italian (Lolium multiflorum); test: Test A preemergence, Italian ryegrass; settings: 0 to 100 scale (0 no effect, 100 complete control)
Method in brief: as §1

[5] = system: foxtail, giant (Setaria faberii); test: Test A preemergence, giant foxtail; settings: 0 to 100 scale (0 no effect, 100 complete control)
Method in brief: as §1

[6] = system: pigweed (Amaranthus retroflexus); test: Test A preemergence, pigweed; settings: 0 to 100 scale (0 no effect, 100 complete control)
Method in brief: as §1

[7] = system: barnyardgrass (Echinochloa crus-galli); test: Test A postemergence, barnyardgrass; settings: visual injury, 0 to 100 scale (0 no effect, 100 complete control), approximately 10 days
Method in brief: as §1

kochia (Kochia scoparia) [8] = test: Test A postemergence, kochia; settings: visual injury, 0 to 100 scale (0 no effect, 100 complete control), approximately 10 days
Method in brief: as §1

[9] = system: ragweed (common ragweed, Ambrosia elatior); test: Test A postemergence, ragweed; settings: visual injury, 0 to 100 scale (0 no effect, 100 complete control), approximately 10 days
Method in brief: as §1

[10] = system: ryegrass, Italian (Lolium multiflorum); test: Test A postemergence, Italian ryegrass; settings: visual injury, 0 to 100 scale (0 no effect, 100 complete control), approximately 10 days
Method in brief: as §1

[11] = system: foxtail, giant (Setaria faberii); test: Test A postemergence, giant foxtail; settings: visual injury, 0 to 100 scale (0 no effect, 100 complete control), approximately 10 days
Method in brief: as §1

[12] = system: pigweed (Amaranthus retroflexus); test: Test A postemergence, pigweed; settings: visual injury, 0 to 100 scale (0 no effect, 100 complete control), approximately 10 days
Method in brief: as §1

[13] = system: blackgrass (Alopecurus myosuroides); test: Test A postemergence, blackgrass; settings: visual injury, 0 to 100 scale (0 no effect, 100 complete control), approximately 10 days
Method in brief: as §1

[14] = system: galium (catchweed bedstraw, Galium aparine); test: Test A postemergence, galium; settings: visual injury, 0 to 100 scale (0 no effect, 100 complete control), approximately 10 days
Method in brief: as §1

[15] = system: wheat (Triticum aestivum); test: Test A postemergence, wheat; settings: visual injury, 0 to 100 scale (0 no effect, 100 complete control), approximately 10 days
Method in brief: as §1

corn (Zea mays) = test: Test A postemergence, corn; settings: visual injury, 0 to 100 scale (0 no effect, 100 complete control), approximately 10 days
Method in brief: as §1

rice (Oryza sativa) = test: Test B flooded paddy test, rice; settings: applied to paddy water, visual rating after 13 to 15 days, scale 0 (no effect) to 100 (complete control)
Method in brief: (§2)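 Test compounds are applied straight into paddy water held 3 cm above the soil surface, with that flood maintained for the whole test. After 13 to 15 days in the greenhouse, each species is scored visually relative to controls.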

[16] = system: sedge, umbrella (small-flower umbrella sedge, Cyperus difformis); test: Test B flooded paddy test, umbrella sedge; settings: applied to paddy water, visual rating after 13 to 15 days, scale 0 (no effect) to 100 (complete control)
Method in brief: as §2

[17] = system: ducksalad (Heteranthera limosa); test: Test B flooded paddy test, ducksalad; settings: applied to paddy water, visual rating after 13 to 15 days, scale 0 (no effect) to 100 (complete control)
Method in brief: as §2

[18] = system: barnyardgrass (Echinochloa crus-galli); test: Test B flooded paddy test, barnyardgrass; settings: applied to paddy water, visual rating after 13 to 15 days, scale 0 (no effect) to 100 (complete control)
Method in brief: as §2

Row | Structure (SMILES) | Plant response rating, Barnyardgrass ([1]; 125 g ai/ha) | Plant response rating, Barnyardgrass ([1]; 500 g ai/ha) | Plant response rating, Kochia (kochia (Kochia scoparia) [2]; 125 g ai/ha) | Plant response rating, Kochia (kochia (Kochia scoparia) [2]; 500 g ai/ha) | Plant response rating, Ragweed ([3]; 125 g ai/ha) | Plant response rating, Ragweed ([3]; 500 g ai/ha) | Plant response rating, Ryegrass, Italian ([4]; 125 g ai/ha) | Plant response rating, Ryegrass, Italian ([4]; 500 g ai/ha) | Plant response rating, Foxtail, Giant ([5]; 125 g ai/ha) | Plant response rating, Foxtail, Giant ([5]; 500 g ai/ha) | Plant response rating, Pigweed ([6]; 125 g ai/ha) | Plant response rating, Pigweed ([6]; 500 g ai/ha) | Plant response rating, Barnyardgrass ([7]; 125 g ai/ha) | Plant response rating, Barnyardgrass ([7]; 500 g ai/ha) | Plant response rating, Kochia (kochia (Kochia scoparia) [8]; 125 g ai/ha) | Plant response rating, Kochia (kochia (Kochia scoparia) [8]; 500 g ai/ha) | Plant response rating, Ragweed ([9]; 125 g ai/ha) | Plant response rating, Ragweed ([9]; 500 g ai/ha) | Plant response rating, Ryegrass, Italian ([10]; 125 g ai/ha) | Plant response rating, Ryegrass, Italian ([10]; 500 g ai/ha) | also measured
1 | O=C1NCC(c2cccc(Cn3ccc(C(F)(F)F)n3)c2)C1C(=O)Nc1ccc(F)cc1F (stereo not drawn) [Compound 24] | 0 | 0 | 0 | 0 | 0 | 0 | 0 | 0 | 0 | 0 | 0 | 0 | 0 | 0 | 0 | 0 | 0 | 0 | 0 | 0 | Plant response rating, Foxtail, Giant ([11]; 125 g ai/ha): 0; Plant response rating, Foxtail, Giant ([11]; 500 g ai/ha): 0; Plant response rating, Pigweed ([12]; 125 g ai/ha): 0; Plant response rating, Pigweed ([12]; 500 g ai/ha): 0; Plant response rating, Blackgrass ([13]; 125 g ai/ha): 0; Plant response rating, Blackgrass ([13]; 500 g ai/ha): 0; Plant response rating, Galium ([14]; 125 g ai/ha): 0; Plant response rating, Galium ([14]; 500 g ai/ha): 0; Plant response rating, Wheat ([15]; 125 g ai/ha): 0; Plant response rating, Wheat ([15]; 500 g ai/ha): 0; Plant response rating, Corn (corn (Zea mays); 125 g ai/ha): 0; Plant response rating, Corn (corn (Zea mays); 500 g ai/ha): 0; Plant response rating, Rice (Flood) (rice (Oryza sativa); 500 g ai/ha): 0; Plant response rating, Sedge, Umbrella (Flood) ([16]; 500 g ai/ha): 0; Plant response rating, Ducksalad (Flood) ([17]; 500 g ai/ha): 0; Plant response rating, Barnyardgrass (Flood) ([18]; 500 g ai/ha): 0
2 | O=C1NCC(c2cccc(Cn3ccc(C(F)(F)F)n3)c2)C1C(=O)Nc1cccc(F)c1F (stereo not drawn) [Compound 25, N-(2,3-difluorophenyl)-2-oxo-4-[3-[[3-(trifluoromethyl)-1H-pyrazol-1-yl]methyl]phenyl]-3-pyrrolidinecarboxamide] | 20 | 40 | 0 | 20 | 0 | 0 | 0 | 0 | 50 | 80 | 0 | 0 | 20 | 60 | 0 | 0 | 0 | 0 | 0 | 0 | Plant response rating, Foxtail, Giant ([11]; 125 g ai/ha): 20; Plant response rating, Foxtail, Giant ([11]; 500 g ai/ha): 60; Plant response rating, Pigweed ([12]; 125 g ai/ha): 0; Plant response rating, Pigweed ([12]; 500 g ai/ha): 0; Plant response rating, Blackgrass ([13]; 125 g ai/ha): 0; Plant response rating, Blackgrass ([13]; 500 g ai/ha): 0; Plant response rating, Galium ([14]; 125 g ai/ha): 0; Plant response rating, Galium ([14]; 500 g ai/ha): 0; Plant response rating, Wheat ([15]; 125 g ai/ha): 0; Plant response rating, Wheat ([15]; 500 g ai/ha): 0; Plant response rating, Corn (corn (Zea mays); 125 g ai/ha): 0; Plant response rating, Corn (corn (Zea mays); 500 g ai/ha): 0; Plant response rating, Rice (Flood) (rice (Oryza sativa); 500 g ai/ha): 15; Plant response rating, Sedge, Umbrella (Flood) ([16]; 500 g ai/ha): 0; Plant response rating, Ducksalad (Flood) ([17]; 500 g ai/ha): 60; Plant response rating, Barnyardgrass (Flood) ([18]; 500 g ai/ha): 0
3 | C[Si](C)(C)C#Cc1cccc(C2CNC(=O)C2C(=O)Nc2cccc(F)c2F)c1 (stereo not drawn) [Compound 33] | 60 | 80 | 0 | 0 | 0 | 0 | 0 | 0 | 60 | 80 | 0 | 0 | 0 | 50 | 0 | 40 | 0 | 0 | 0 | 0 | Plant response rating, Foxtail, Giant ([11]; 125 g ai/ha): 0; Plant response rating, Foxtail, Giant ([11]; 500 g ai/ha): 50; Plant response rating, Pigweed ([12]; 125 g ai/ha): 0; Plant response rating, Pigweed ([12]; 500 g ai/ha): 0; Plant response rating, Blackgrass ([13]; 125 g ai/ha): 0; Plant response rating, Blackgrass ([13]; 500 g ai/ha): 0; Plant response rating, Galium ([14]; 125 g ai/ha): 0; Plant response rating, Galium ([14]; 500 g ai/ha): 20; Plant response rating, Wheat ([15]; 125 g ai/ha): 0; Plant response rating, Wheat ([15]; 500 g ai/ha): 0; Plant response rating, Corn (corn (Zea mays); 125 g ai/ha): 0; Plant response rating, Corn (corn (Zea mays); 500 g ai/ha): 0; Plant response rating, Rice (Flood) (rice (Oryza sativa); 250 g ai/ha): 0; Plant response rating, Sedge, Umbrella (Flood) ([16]; 250 g ai/ha): 0; Plant response rating, Ducksalad (Flood) ([17]; 250 g ai/ha): 50; Plant response rating, Barnyardgrass (Flood) ([18]; 250 g ai/ha): 0
4 | O=C1NCC(c2cccc(Oc3ccccn3)c2)C1C(=O)Nc1ccccc1F (stereo not drawn) [Compound 34, N-(2-Fluorophenyl)-2-oxo-4-[3-(2-pyridinyloxy)phenyl]-3-pyrrolidinecarboxamide] | 20 | 90 | 0 | 0 | 0 | 0 | 0 | 0 | 70 | 90 | 0 | 0 | 30 | 60 | 0 | 0 | 0 | 0 | 0 | 30 | Plant response rating, Foxtail, Giant ([11]; 125 g ai/ha): 30; Plant response rating, Foxtail, Giant ([11]; 500 g ai/ha): 80; Plant response rating, Pigweed ([12]; 125 g ai/ha): 0; Plant response rating, Pigweed ([12]; 500 g ai/ha): 0; Plant response rating, Blackgrass ([13]; 125 g ai/ha): 0; Plant response rating, Blackgrass ([13]; 500 g ai/ha): 20; Plant response rating, Galium ([14]; 125 g ai/ha): 20; Plant response rating, Galium ([14]; 500 g ai/ha): 50; Plant response rating, Wheat ([15]; 125 g ai/ha): 0; Plant response rating, Wheat ([15]; 500 g ai/ha): 0; Plant response rating, Corn (corn (Zea mays); 125 g ai/ha): 0; Plant response rating, Corn (corn (Zea mays); 500 g ai/ha): 0; Plant response rating, Rice (Flood) (rice (Oryza sativa); 500 g ai/ha): 0; Plant response rating, Sedge, Umbrella (Flood) ([16]; 500 g ai/ha): 0; Plant response rating, Ducksalad (Flood) ([17]; 500 g ai/ha): 85; Plant response rating, Barnyardgrass (Flood) ([18]; 500 g ai/ha): 20
5 | O=C1NCC(c2cccc(OC(F)(F)C(F)OC(F)(F)F)c2)C1C(=O)Nc1ccccc1F (stereo not drawn) [Compound 40] | 50 | 90 | 0 | 90 | 0 | 20 | 0 | 0 | 90 | 90 | 0 | 0 | 50 | 40 | 0 | 0 | 0 | 0 | 0 | 0 | Plant response rating, Foxtail, Giant ([11]; 125 g ai/ha): 40; Plant response rating, Foxtail, Giant ([11]; 500 g ai/ha): 60; Plant response rating, Pigweed ([12]; 125 g ai/ha): 0; Plant response rating, Pigweed ([12]; 500 g ai/ha): 0; Plant response rating, Blackgrass ([13]; 125 g ai/ha): 0; Plant response rating, Blackgrass ([13]; 500 g ai/ha): 30; Plant response rating, Galium ([14]; 125 g ai/ha): 40; Plant response rating, Galium ([14]; 500 g ai/ha): 40; Plant response rating, Wheat ([15]; 125 g ai/ha): 0; Plant response rating, Wheat ([15]; 500 g ai/ha): 20; Plant response rating, Corn (corn (Zea mays); 125 g ai/ha): 0; Plant response rating, Corn (corn (Zea mays); 500 g ai/ha): 0; Plant response rating, Rice (Flood) (rice (Oryza sativa); 250 g ai/ha): 0; Plant response rating, Sedge, Umbrella (Flood) ([16]; 250 g ai/ha): 0; Plant response rating, Ducksalad (Flood) ([17]; 250 g ai/ha): 70; Plant response rating, Barnyardgrass (Flood) ([18]; 250 g ai/ha): 20
